One series has as its system mouse PCSK9 locus. The series can be described thus: Intracellular PCSK9 staining by flow cytometry in Hepa1-6 cells lipofected with mRNA and gRNA. The following applies: for permanence of PCSK9 silencing by spacer: paired with LTRP1-ZIM3 mRNA, through day 25. In kind it is cell-based. Here is the method: Seeded Hepa1-6 cells treated with the NATE™ inhibitor were lipofected with 300 ng of mRNA encoding dXR1 or LTRP1-ZIM3 (Table 12) and 150 ng of a PCSK9-targeting gRNA (Table 14). Seven different gRNAs spanning the promoter region of the mouse PCSK9 locus were tested, in addition to a non-targeting sequence complementary to the human PCSK9 gene (Table 14). Cells were harvested at 6, 13, and 25 days after transfection to measure intracellular levels of the PCSK9 protein using an intracellular flow cytometry staining protocol. Briefly, cells were fixed using 4% paraformaldehyde in PBS, permeabilized, and stained using a mouse anti-PCSK9 primary antibody (R&D Systems®), followed by a fluorescent goat anti-mouse IgG secondary antibody (Thermo Fisher®). […] Cell populations were gated using the non-targeting gRNA as a negative control.
Seeded Hepa1-6 cells treated with the NATE™ inhibitor were lipofected with 300 ng of mRNA encoding LTRP1-ZIM3, LTRP5-ZIM3, catalytically-active CasX 491, or dCas9-ZNF10-DNMT3A/3L, and 150 ng of PCSK9-targeting gRNA (Table 14). Intracellular levels of PCSK9 protein were measured at 7, 14, 21, 36, and 71 days post-transfection using an intracellular staining protocol as described earlier for experiment #1.
Transfection of mRNA and gRNA into Hepa1-6 cells and intracellular PCSK9 staining were performed as described in Example 2. Briefly, each well of seeded Hepa1-6 cells was transfected with 300 ng of mRNA encoding LTRP5-ZIM3 or LTRP5-ADD-ZIM3 and 150 ng of PCSK9-targeting gRNA with spacer 27.88 or 27.94. Intracellular levels of PCSK9 protein were measured at various timepoints, up to day 53 post-transfection using an intracellular staining protocol as described earlier in Example 2. A non-targeting gRNA was used as an experimental control.

Another series relates to human PCSK9 locus. Description: Secreted PCSK9 by ELISA (normalized to total cell count) in Huh7 cells transfected with mRNA and gRNA. It counts as cell-based. The following applies: paired with LTRP5-ADD-ZIM3 mRNA; for Secreted PCSK9 / Percent reduction in PCSK9 secretion / Average percent reduction in PCSK9 secretion: Huh7 cells, 6 days post-transfection; for Secreted PCSK9: normalized to total cell count; for Percent reduction in PCSK9 secretion: relative to non-targeting gRNA control; for Average percent reduction in PCSK9 secretion: averaged from the two doses. The gist of the method: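 Huh7 cells were transfected with CasX or epigenetic-editor mRNA plus PCSK9- or B2M-targeting gRNA (scaffold 316). In one screen, LTRP5-ADD-ZIM3 mRNA:gRNA was given at 50:25 or 25:12.5 ng by Lipofectamine 3000. Secreted PCSK9 was measured by ELISA in supernatant 4-87 days post-transfection and normalized to total cell count.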
A general note: An ELISA detects its analyte on a solid surface through an enzyme-linked reagent.

Here are results for 16 substances from US12551573B2, “Compositions and methods for the targeting of PCSK9” (Scribe Therapeutics Inc., priority 2022, dated 2026).

For “CCCCUCUUAAUCCCCACUCC (spacer within chemically modified full gRNA with 2'-OMe and phosphorothioate ends, further chemistry not given here) [spacer 27.94, mouse PCSK9]”, the “knockdown of intracellular PCSK9” value with mouse PCSK9 locus (300 ng LTRP1-ZIM3 mRNA + 150 ng gRNA (scaffold 174, v1), day 6) was over 80%. Further, the “permanence of PCSK9 silencing by spacer” value in the series with mouse PCSK9 locus is reported as “strongest permanence in silencing PCSK9”. The “durability of PCSK9 repression by spacer” value in the series on mouse PCSK9 locus (paired with LTRP5-ZIM3 or LTRP5-ADD-ZIM3, day 53) is on record as “more durable repression than use of spacer 27.88 by day 53”. Also, the “durable PCSK9 knockdown” value in the series on mouse PCSK9 locus (third-party-produced mRNA paired with gRNAs containing various spacers, up to day 71) was “highest level of PCSK9 repression”.

Turning to “CGCUACCUGCCUAAACUUUG (spacer within chemically modified full gRNA with 2'-OMe and phosphorothioate ends, further chemistry not given here) [spacer 27.88, mouse PCSK9]”, the “permanence of PCSK9 silencing by spacer” value with mouse PCSK9 locus is “strongest permanence in silencing PCSK9”.

Turning to “TG-06-348 (guide AGGCAUUCACUCCUUCACCC; listed as RNA, chemistry not given here)”, in the series on human PCSK9 locus (25 ng mRNA:12.5 ng gRNA), the “Secreted PCSK9” value is given as 35.55 ng/mL and the “Percent reduction in PCSK9 secretion” value was 50.1%. Further, in the series with human PCSK9 locus (50 ng mRNA:25 ng gRNA), the “Secreted PCSK9” value is 23.14 ng/mL and the “Percent reduction in PCSK9 secretion” value is listed as 71.88%. Also, the “Average percent reduction in PCSK9 secretion” value (shortened to “Average percent reduction”) in the series with human PCSK9 locus worked out at 60.99%.

Turning to “TG-06-349 (guide CUGUGCCUGGUGCAGUUCCC; listed as RNA, chemistry not given here)”, in the series with human PCSK9 locus (25 ng mRNA:12.5 ng gRNA), the “Secreted PCSK9” value came to 87.55 ng/mL and the “Percent reduction in PCSK9 secretion” value amounted to 22.89%. In the series with human PCSK9 locus (50 ng mRNA:25 ng gRNA), the “Secreted PCSK9” value came to 91.34 ng/mL and the “Percent reduction in PCSK9 secretion” value came to 11.02%. The “Average percent reduction” value in the series on human PCSK9 locus is recorded as 16.95%.

Turning to “TG-06-350 (guide GUGUCAUAAAGAAAUUGCCU; listed as RNA, chemistry not given here)”, the “Secreted PCSK9” value with human PCSK9 locus (25 ng mRNA:12.5 ng gRNA) was 67.87 ng/mL; with human PCSK9 locus (50 ng mRNA:25 ng gRNA), 71.25 ng/mL. Also, the “Percent reduction in PCSK9 secretion” value with human PCSK9 locus (25 ng mRNA:12.5 ng gRNA) is recorded as 4.74%; with human PCSK9 locus (50 ng mRNA:25 ng gRNA), 13.4%. Moreover, in the series on human PCSK9 locus, the “Average percent reduction” value came out at 9.07%.

As for “TG-06-351 (guide UUAUGACACAGAACUCAUGC; listed as RNA, chemistry not given here)”, in the series with human PCSK9 locus (25 ng mRNA:12.5 ng gRNA), the “Secreted PCSK9” value was determined as 62.93 ng/mL and the “Percent reduction in PCSK9 secretion” value is 11.67%. In the series on human PCSK9 locus (50 ng mRNA:25 ng gRNA), the “Secreted PCSK9” value is given as 56.34 ng/mL and the “Percent reduction in PCSK9 secretion” value is on record as 31.52%. In the series with human PCSK9 locus, the “Average percent reduction” value came to 21.6%.

On to “TG-06-352: PCSK9-targeting TTC spacer positioned beyond the 1100 bp TSS-proximal window (Table 17) (guide UCCCUCACCAAUUACCCCUC; listed as RNA, chemistry not given here)”, for which, in the series on human PCSK9 locus (Huh7, scaffold 316, compared to spacer 6.1 paired with CasX 676), the “secreted PCSK9: sustained repression through day 36” value is reported as “effective repression through day 36”.

In the case of “TG-06-1046 (guide UCUCUUACAUGGGGGGAAAC; listed as RNA, chemistry not given here)”, the “Secreted PCSK9” value was found to be 76.27 ng/mL in the series on human PCSK9 locus (25 ng mRNA:12.5 ng gRNA) and 78.9 ng/mL in the series on human PCSK9 locus (50 ng mRNA:25 ng gRNA). Moreover, the “Percent reduction in PCSK9 secretion” value with human PCSK9 locus (25 ng mRNA:12.5 ng gRNA) was 7.05%; in the series with human PCSK9 locus (50 ng mRNA:25 ng gRNA) it was 4.1%. In the series with human PCSK9 locus, the “Average percent reduction” value is 1.48%.

Take “UCCCAGUAUCGACAGCCCUU (listed as RNA, chemistry not given here) [spacer 6.123, Promoter]”: in the series on human PCSK9 locus (25 ng mRNA:12.5 ng gRNA), the “Secreted PCSK9” value turned out to be 51.32 ng/mL and the “Percent reduction in PCSK9 secretion” value was determined as 27.97%. In the series on human PCSK9 locus (50 ng mRNA:25 ng gRNA), the “Secreted PCSK9” value stood at 30.49 ng/mL and the “Percent reduction in PCSK9 secretion” value worked out at 62.95%. The “Average percent reduction” value in the series with human PCSK9 locus is given as 45.46%.

As for “UCCCUCUGCGCGUAAUCUGA (listed as RNA, chemistry not given here) [spacer 6.150, Promoter]”, the “Secreted PCSK9” value is 39.59 ng/mL in the series with human PCSK9 locus (25 ng mRNA:12.5 ng gRNA) and 18.33 ng/mL in the series on human PCSK9 locus (50 ng mRNA:25 ng gRNA). Moreover, the “Percent reduction in PCSK9 secretion” value in the series with human PCSK9 locus (25 ng mRNA:12.5 ng gRNA) amounted to 44.42%; in the series on human PCSK9 locus (50 ng mRNA:25 ng gRNA), 77.73%. Besides, the “Average percent reduction” value with human PCSK9 locus was 61.08%.

Turning to “UCCUCCUGCCUGGUACACAA (listed as RNA, chemistry not given here) [spacer 6.127, Promoter]”, the results for the “Secreted PCSK9” value with human PCSK9 locus (25 ng mRNA:12.5 ng gRNA) and with human PCSK9 locus (50 ng mRNA:25 ng gRNA) were 49.1 ng/mL and 22.57 ng/mL, respectively. Moreover, the “Percent reduction in PCSK9 secretion” value with human PCSK9 locus (25 ng mRNA:12.5 ng gRNA) amounted to 31.08%; in the series with human PCSK9 locus (50 ng mRNA:25 ng gRNA) it was 72.56%. Further, in the series with human PCSK9 locus, the “Average percent reduction” value is listed as 51.82%.

As to “UCGGCCUCCGGGUCUCCCAA (listed as RNA, chemistry not given here) [spacer 6.170, Intron 1]”, the “Secreted PCSK9” value in the series on human PCSK9 locus (25 ng mRNA:12.5 ng gRNA) was found to be 72.96 ng/mL; in the series on human PCSK9 locus (50 ng mRNA:25 ng gRNA), 64.19 ng/mL. Also, the “Percent reduction in PCSK9 secretion” value was 2.41% in the series on human PCSK9 locus (25 ng mRNA:12.5 ng gRNA) and 21.98% in the series with human PCSK9 locus (50 ng mRNA:25 ng gRNA). For the same substance, in the series on human PCSK9 locus, the “Average percent reduction” value is recorded as 9.79%.

For the substance “UGAACAUGGUGUGUAAAAGG (listed as RNA, chemistry not given here) [spacer 6.131, Promoter]”, in the series on human PCSK9 locus (25 ng mRNA:12.5 ng gRNA), the “Secreted PCSK9” value is 57.89 ng/mL and the “Percent reduction in PCSK9 secretion” value is 18.74%. For the same substance, in the series with human PCSK9 locus (50 ng mRNA:25 ng gRNA), the “Secreted PCSK9” value was 28.4 ng/mL and the “Percent reduction in PCSK9 secretion” value is given as 65.48%. Also, in the series on human PCSK9 locus, the “Average percent reduction” value was 42.11%.

With “UGGGUCCACCUUGUCUCCUG (listed as RNA, chemistry not given here) [spacer 6.145, Promoter]”, in the series with human PCSK9 locus (25 ng mRNA:12.5 ng gRNA), the “Secreted PCSK9” value is given as 18.54 ng/mL and the “Percent reduction in PCSK9 secretion” value stood at 73.98%. For the same substance, in the series on human PCSK9 locus (50 ng mRNA:25 ng gRNA), the “Secreted PCSK9” value was found to be 15.8 ng/mL and the “Percent reduction in PCSK9 secretion” value is reported as 80.8%. In the series with human PCSK9 locus, the “Average percent reduction” value is given as 77.39%.

For the substance “UUCCACUGGCCUUAACCUGG (listed as RNA, chemistry not given here) [spacer 6.142, Promoter]”, the entries for the “Secreted PCSK9” value in the series with human PCSK9 locus (25 ng mRNA:12.5 ng gRNA) and in the series on human PCSK9 locus (50 ng mRNA:25 ng gRNA) were 27.27 ng/mL and 30.87 ng/mL, respectively. Further, the “Percent reduction in PCSK9 secretion” value was determined as 61.73% in the series with human PCSK9 locus (25 ng mRNA:12.5 ng gRNA) and 62.48% in the series with human PCSK9 locus (50 ng mRNA:25 ng gRNA). The “Average percent reduction” value in the series with human PCSK9 locus came out at 62.1%.

In the case of “UUUUACACACCAUGUUCAAG (listed as RNA, chemistry not given here) [spacer 6.129, Promoter]”, in the series on human PCSK9 locus (25 ng mRNA:12.5 ng gRNA), the “Secreted PCSK9” value amounted to 90.82 ng/mL and the “Percent reduction in PCSK9 secretion” value is recorded as 27.47%. In addition, in the series on human PCSK9 locus (50 ng mRNA:25 ng gRNA), the “Secreted PCSK9” value is listed as 59.93 ng/mL and the “Percent reduction in PCSK9 secretion” value stood at 27.16%. Also, in the series on human PCSK9 locus, the “Average percent reduction” value stood at 0.16%.
